Experimental data as given in PubChem BioAssay AID192 (DTP/NCI, 2004).
Values joined by “and” are separate entries in the source; they are usually repeats but may differ in a detail not shown here. Equal values may be shown once. Toxic doses and inconclusive results are not listed.

Tested on: BDF1 mice, B16 melanoma ip, median survival T/C
Assay: NCI In Vivo Anticancer Drug Screen. Data for tumor model B16 Melanoma (intraperitoneal) in B6D2F1 (BDF1) mice
Settings: endpoint: median survival time, higher = longer survival
Method in brief: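 Transplantable tumor model; survival or tumor size measured; reported as T/C, treated over vehicle control.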

[1] = dose: 25.0 mg/kg/injection, schedule: Q01DX009 (ip), vehicle: Klucel (hydroxypropylcellulose) (HPC)
[2] = dose: 50.0 mg/kg/injection, schedule: Q01DX009 (ip), vehicle: Klucel (hydroxypropylcellulose) (HPC)
[3] = dose: 100.0 mg/kg/injection, schedule: Q01DX009 (ip), vehicle: Klucel (hydroxypropylcellulose) (HPC)
[4] = dose: 200.0 mg/kg/injection, schedule: Q01DX009 (ip), vehicle: Klucel (hydroxypropylcellulose) (HPC)
[5] = dose: 100.0 mg/kg/injection, schedule: Q01DX009 (ip), vehicle: saline with Tween-80
[6] = dose: 0.31 mg/kg/injection, schedule: Q01DX009 (ip), vehicle: saline
[7] = dose: 1.25 mg/kg/injection, schedule: Q01DX009 (ip), vehicle: saline
[8] = dose: 2.5 mg/kg/injection, schedule: Q01DX009 (ip), vehicle: saline
[9] = dose: 400.0 mg/kg/injection, schedule: Q01DX009 (ip), vehicle: Klucel (hydroxypropylcellulose) (HPC)
[10] = dose: 200.0 mg/kg/injection, schedule: Q01DX009 (ip), vehicle: saline with Tween-80
[11] = dose: 400.0 mg/kg/injection, schedule: Q01DX009 (ip), vehicle: saline with Tween-80

CNNCc1ccc(C(=O)NC(C)C)cc1
T/C (dose: 37.5 mg/kg/injection, schedule: Q01DX009 (ip), vehicle: water): 121 % of control | T/C (dose: 40.0 mg/kg/injection, schedule: Q01DX009 (ip), vehicle: saline with Tween-80): 108 % of control | T/C (dose: 54.0 mg/kg/injection, schedule: Q01DX009 (ip), vehicle: saline): 123 % of control | T/C (dose: 90.0 mg/kg/injection, schedule: Q01DX009 (ip), vehicle: saline): 120 % of control | T/C (dose: 250.0 mg/kg/injection, schedule: Q01DX009 (ip), vehicle: saline): 123 % of control | T/C (dose: 320.0 mg/kg/injection, schedule: Q01DX009 (ip), vehicle: saline with Tween-80): 98 % of control

CCCNC(C)(C)C(SSS)c1cccs1 (stereo not given)
T/C (dose: 4.68 mg/kg/injection, schedule: Q04DX003 (ip), vehicle: saline): 97 % of control | T/C (dose: 6.25 mg/kg/injection, schedule: Q01DX009 (ip), vehicle: alcohol): 111 % of control | T/C (dose: 9.37 mg/kg/injection, schedule: Q04DX003 (ip), vehicle: saline): 106 % of control | T/C (dose: 12.5 mg/kg/injection, schedule: Q01DX009 (ip), vehicle: alcohol): 100 % of control | T/C (dose: 18.75 mg/kg/injection, schedule: Q04DX003 (ip), vehicle: saline): 107 % of control | T/C (dose: 25.0 mg/kg/injection, schedule: Q01DX009 (ip), vehicle: alcohol): 95 % of control | T/C (dose: 50.0 mg/kg/injection, schedule: Q01DX009 (ip), vehicle: alcohol): 91 % of control

Cc1ccc(NC(=O)c2cccc(C(=O)Nc3ccc(C)cc3C)c2)c(C)c1
T/C (dose: 12.5 mg/kg/injection, schedule: Q01DX009 (ip), vehicle: Klucel (hydroxypropylcellulose) (HPC)): 115 % of control | T/C [1]: 96 % of control | T/C [2]: 102 % of control

Cc1cc(=O)[nH]c2ccc(-c3ccc4[nH]c(=O)cc(C)c4c3)cc12
T/C [3]: 96 % of control | T/C [4]: 93 % of control

CCOC(=O)C(=CN(C(C)C)C(C)C)C(=O)OCC
T/C (dose: 50.0 mg/kg/injection, schedule: Q01DX009 (ip), vehicle: saline with Tween-80): 117 % of control | T/C (dose: 50.0 mg/kg/injection, schedule: Q04DX003 (ip), vehicle: saline with Tween-80): 108 % of control | T/C [5]: 111 % of control | T/C (dose: 100.0 mg/kg/injection, schedule: Q04DX003 (ip), vehicle: saline with Tween-80): 108 % of control | T/C (dose: 200.0 mg/kg/injection, schedule: Q04DX003 (ip), vehicle: saline with Tween-80): 108 % of control

C[n+]1cc2c3ccccc3c(N)cc2c2ccccc21
T/C (dose: 3.13 mg/kg/injection, schedule: Q01DX009 (ip), vehicle: saline): 106 % of control

C=CCN1CCC(C(=O)CC)(c2ccccc2)CC1
T/C (dose: 10.0 mg/kg/injection, schedule: Q04DX003 (ip), vehicle: Klucel (hydroxypropylcellulose) (HPC)): 111 % of control | T/C (dose: 20.0 mg/kg/injection, schedule: Q04DX003 (ip), vehicle: Klucel (hydroxypropylcellulose) (HPC)): 114 % of control | T/C (dose: 40.0 mg/kg/injection, schedule: Q04DX003 (ip), vehicle: Klucel (hydroxypropylcellulose) (HPC)): 114 % of control

C/C=C(\C)c1cc(=O)c2c(C)cc3c(c2o1)C(=O)c1c(O)c(C2CC(C)(N(C)C)C(OC(C)=O)C(C)O2)cc(C2CC(N(C)C)C(O)C(C)O2)c1C3=O (stereo not given)
T/C (dose: 0.16 mg/kg/injection, schedule: Q01DX009 (ip), vehicle: saline): 103 % of control | T/C [6]: 103 % of control | T/C (dose: 0.62 mg/kg/injection, schedule: Q01DX009 (ip), vehicle: saline): 102 % of control | T/C [7]: 91 % of control and 110 % of control | T/C [8]: 124 % of control

CNC(=O)Nc1ccc(C(=O)NC(C)C)cc1
T/C [1]: 98 % of control | T/C [2]: 97 % of control | T/C [3]: 96 % of control | T/C [4]: 100 % of control | T/C [9]: 88 % of control

c1ccc([C@H]2CN3CCSC3=N2)cc1
T/C (dose: 0.15 mg/kg/injection, schedule: Q01DX009 (ip), vehicle: saline): 97 % of control | T/C [6]: 89 % of control and 102 % of control | T/C (dose: 0.63 mg/kg/injection, schedule: Q01DX009 (ip), vehicle: saline): 102 % of control | T/C [7]: 102 % of control | T/C [8]: 103 % of control | T/C (dose: 5.0 mg/kg/injection, schedule: Q01DX009 (ip), vehicle: saline): 89 % of control | T/C (dose: 10.0 mg/kg/injection, schedule: Q01DX009 (ip), vehicle: saline): 89 % of control | T/C (dose: 20.0 mg/kg/injection, schedule: Q01DX009 (ip), vehicle: saline): 107 % of control | T/C (dose: 40.0 mg/kg/injection, schedule: Q01DX009 (ip), vehicle: saline): 86 % of control

O=C1C(Cl)=C(N=Nc2c(Cl)c(O)c3ccccc3c2O)C(=O)c2ccccc21
T/C (dose: 12.5 mg/kg/injection, schedule: Q01DX009 (ip), vehicle: saline): 89 % of control | T/C (dose: 25.0 mg/kg/injection, schedule: Q01DX009 (ip), vehicle: saline): 86 % of control

COc1cc2c(cc1OC)C(C#N)N(C(=O)c1ccccc1)C=C2 (stereo not given)
T/C (dose: 0.1 mg/kg/injection, schedule: Q01DX009 (ip), vehicle: other): 102 % of control | T/C (dose: 0.19 mg/kg/injection, schedule: Q01DX009 (ip), vehicle: other): 104 % of control | T/C (dose: 0.38 mg/kg/injection, schedule: Q01DX009 (ip), vehicle: other): 107 % of control | T/C (dose: 0.75 mg/kg/injection, schedule: Q01DX009 (ip), vehicle: other): 111 % of control | T/C (dose: 1.5 mg/kg/injection, schedule: Q01DX009 (ip), vehicle: other): 112 % of control

CC1OC(OCc2ccc3c(c2)C(=O)c2ccccc2C3=O)CC(N)C1O (stereo not given)
T/C (dose: 1.56 mg/kg/injection, schedule: Q01DX009 (ip), vehicle: water): 102 % of control | T/C (dose: 3.13 mg/kg/injection, schedule: Q01DX009 (ip), vehicle: water): 93 % of control | T/C (dose: 6.25 mg/kg/injection, schedule: Q01DX009 (ip), vehicle: water): 115 % of control | T/C (dose: 12.5 mg/kg/injection, schedule: Q01DX009 (ip), vehicle: water): 115 % of control | T/C (dose: 50.0 mg/kg/injection, schedule: Q01DX009 (ip), vehicle: water): 94 % of control

Cc1c2cc[n+](C)cc2c(C)c2c1[nH]c1ccc(O)cc12
T/C (dose: 0.06 mg/kg/injection, schedule: Q01DX009 (ip), vehicle: water): 111 % of control | T/C (dose: 0.25 mg/kg/injection, schedule: Q01DX009 (ip), vehicle: water): 158 % of control

CCCCCCCCCCCCCCOC(=O)Cl
T/C [2]: 90 % of control | T/C [3]: 92 % of control | T/C [4]: 96 % of control | T/C [9]: 91 % of control

O=C1OCCN1/N=C/c1ccc([N+](=O)[O-])o1
T/C [3]: 100 % of control

CC1OC(Oc2c(-c3cc(O)c(O)c(O)c3)oc3cc(O)cc(O)c3c2=O)C(O)C(O)C1O (stereo not given)
T/C [5]: 112 % of control | T/C [10]: 113 % of control | T/C [11]: 90 % of control

C#CC(OC(=O)NC1CCCCC1)(c1ccccc1)c1ccccc1
T/C (dose: 6.25 mg/kg/injection, schedule: Q01DX009 (ip), vehicle: saline with Tween-80): 105 % of control | T/C (dose: 12.5 mg/kg/injection, schedule: Q01DX009 (ip), vehicle: saline with Tween-80): 100 % of control | T/C (dose: 25.0 mg/kg/injection, schedule: Q01DX009 (ip), vehicle: saline with Tween-80): 113 % of control

CC1(C)SC2C(NC(=O)C(N)c3ccccc3)C(=O)N2C1C(=O)O (stereo not given)
T/C [5]: 100 % of control | T/C [10]: 95 % of control | T/C [11]: 90 % of control

C=CCNC(=S)Nc1cccc(Cl)c1C
T/C (dose: 12.5 mg/kg/injection, schedule: Q04DX003 (ip), vehicle: Klucel (hydroxypropylcellulose) (HPC)): 93 % of control | T/C (dose: 25.0 mg/kg/injection, schedule: Q04DX003 (ip), vehicle: Klucel (hydroxypropylcellulose) (HPC)): 100 % of control | T/C (dose: 50.0 mg/kg/injection, schedule: Q04DX003 (ip), vehicle: Klucel (hydroxypropylcellulose) (HPC)): 100 % of control

O=C1C=C(c2ccccc2)C(=O)C=C1c1ccccc1
T/C (dose: 6.0 mg/kg/injection, schedule: Q04DX003 (ip), vehicle: gum acacia): 100 % of control | T/C (dose: 12.0 mg/kg/injection, schedule: Q04DX003 (ip), vehicle: gum acacia): 91 % of control | T/C (dose: 25.0 mg/kg/injection, schedule: Q04DX003 (ip), vehicle: gum acacia): 92 % of control and 93 % of control
